Measured values: article PMC12867150, “A fungi-derived cyclic peptide enhances Th9-mediated antitumor immunity by targeting ZAP70 and SREBP1” (The Journal of Clinical Investigation, 2025)
Several values for one entry are separate records, joined by “and”; a condition that tells them apart may be missing. Identical values can stand only once.

Key:
Format in all cases: cell-based, mouse
[1] = tested on: Th9 signature genes (Irf4, Batf3, Batf, and Il9); test: Quantitative RT-PCR of Th9 signature genes (Figure 1J)
Procedure: Total RNA was extracted from T cells using RNAex Pro Reagent (AG, catalog AG21102) following the manufacturer’s instructions. First-strand complementary DNA (cDNA) was synthesized using the Hifair III 1st Strand cDNA Synthesis SuperMix (YEASEN, catalog 11137ES10). Quantitative real-time PCR (qRT-PCR) was conducted on a QuantStudio 3 Real-Time PCR System (Thermo Fisher Scientific) using ChamQ Universal SYBR qPCR Master Mix (Vazyme, catalog Q711-02) and gene-specific primers (Tsingke Biotech).
For normalization, mouse samples were referenced to Gapdh or Actb, and human samples were normalized to GAPDH. Relative gene expression was calculated using the ΔΔCt method. Primer sequences are listed in Supplemental Table 5.

phosphorylated ZAP70 = test: Flow cytometry of phosphorylated ZAP70 in Th9 cells (Figure 5E); conditions: 30 minutes after activation; result in words
Procedure: Details regarding staining panels (human and mouse), reagents (including clones and catalog numbers), acquisition settings, compensation/controls, and analysis procedures are provided in Supplemental Methods.
BioLegend, Cat. No. 422301 or Mouse TruStain FcX™, BioLegend, Cat. No. 101319) for 10 minutes at 4°C. For surface marker detection, cells were stained with fluorochrome-conjugated monoclonal antibodies in 96-well V-bottom plates and incubated on ice for 30 minutes. After staining, cells were washed twice and resuspended in FACS buffer for analysis.
Prior to intracellular cytokine staining, cells were restimulated for 4 hours with PMA (Absin, Cat. No. abs9107), ionomycin (Sigma-Aldrich, Cat. No. I0634), and brefeldin A (MedChemExpress, Cat. No. HY-16592). For intracellular cytokine staining, cells were first surface-stained as described above, then fixed and permeabilized using the BD Cytofix/Cytoperm™ kit (BD Biosciences, Cat. No. 554714) according to the manufacturer ’s protocol. Intracellular proteins were stained with directly conjugated antibodies targeting IL-9, IL-17a, IL-4, IFN-γ, TNF-α, FOXP3, p-ZAP70, Perforin, and […]
Antibodies used for mouse samples included those against IL-9 (PE, clone RM9A4, Biolegend, Cat. No. 514104), IFN-γ (PE, clone XMG1.2, Biolegend, Cat. No.
Cat. No. 103138), CD4 (APC/Cy7, clone E-AB-F1353UJ, Elabscience, Cat. No. […]

Th9 cells = test: IL-9+ Th9 cells with oleic acid (S8I-J); conditions: representative flow plot, Figure S8I; EpA 10 μM, OA 50 μM
Source text: LXR-α binding site ChREBP binding site USF1 binding site […] 2.1 1.8 2.1 […] 1.9 […] 20 20 0 […] + OA ✱✱✱✱ MIGR1 M Ctrl + OAEpA […] SREBP1 Ctrl SREBP1EpA ✱✱✱✱ ✱✱✱ 3 2 1 0 TNF-α MIGR1 SREBP1 […] SREBP1EpA Figure S8. EpA-associated modulation of lipid metabolism and its impact on Figure S8 Th9 cell function. (A-C) GSEA of RNA-seq data showing intracellular sterol transport (A), sterol transfer activity (B), and long-chain fatty acid transport (C) pathways in control and EpA-treated Th9 cells. […] (K and L) Flow-cytometric analysis of IL-9 expression in Th9 cells transduced with either control (MIGR1) or SREBP1- […]

[2] = EpA-treated Th9, ΔΔCt, individual replicates, n = 3

In the case of anteiso-C15 Leu7 surfactin [EpA], the “Batf3 relative mRNA expression” value [1, 2] is reported as 1.532 and 2.109 and 2.3014, the “Batf relative mRNA expression” value [1, 2] is reported as 1.713 and 1.736 and 1.548 and the “Il9 relative mRNA expression” value [1, 2] is reported as 23.4757 and 53.1262 and 48.3738. For the same substance, the “Irf4 relative mRNA expression” value [1, 2] was 1.345 and 1.289 and 1.126, the “Th9-associated transcription factors and effector cytokines” value ([1]; result in words) was “significantly upregulated” and the ZAP70 phosphorylation (phosphorylated ZAP70) was “significantly enhanced ZAP70 phosphorylation”. The IL-9 gate number (Th9 cells) was 77.2.
